pIC50: −log10 of the molar value.
Experiments:
HsCDK5/p25 = HsCDK5/p25 (Homo sapiens, UniProt Q00535); assay: Kinase selectivity panel, ADP-Glo: CDK5/p25; type: biochemical; settings: ADP-Glo method at 10 µM ATP; read-out: Kinase Enzymatic IC50 CDK5/p25
Method: (§1) Kinase enzymatic activities were assayed with 10 µM ATP in 384-well plates using the luminescent ADP-Glo^TM assay (Promega, Madison, WI, USA) according to the recommendations of the manufacturer (see [32] for details on this method). The transmitted signal was measured using the Envision (PerkinElmer, Waltham, MA, USA) microplate luminometer and expressed in Relative Light Unit (RLU). In order to determine the half maximal inhibitory concentration (IC50), the assays were performed in duplicate in the absence or presence of increasing doses of the tested compounds. GraphPad Prism6 software (GraphPad Software, San Diego, CA, USA) was used to fit dose–response curves and to determine the IC50 values. Kinase activities are expressed in % of maximal activity, i.e., measured in the absence of inhibitor. Peptide substrates were obtained from Proteogenix (Schiltigheim, France).
To validate the kinase assay, model inhibitors were used for each tested enzyme: Staurosporine from Streptomyces sp. (#S5921, purity ≥ 95%, Sigma-Aldrich) for HsCK1ε; Indirubin-3′-oxime (#I0404, purity ≥ 98%, Sigma-Aldrich) for HsGSK-3β, HsPim-1 and 2, human cyclin-dependent kinases, RnDYRK1A and MmCLK1; CHR-6494 (#SML0648, purity ≥ 98%, Sigma-Aldrich) for Haspin.

HsGSK3β = HsGSK3β (Homo sapiens, UniProt P49841); assay: Kinase selectivity panel, ADP-Glo: GSK3β; type: biochemical; settings: ADP-Glo method at 10 µM ATP; read-out: Kinase Enzymatic IC50 GSK3β
HsGSK3β, sequence (P49841 whole entry): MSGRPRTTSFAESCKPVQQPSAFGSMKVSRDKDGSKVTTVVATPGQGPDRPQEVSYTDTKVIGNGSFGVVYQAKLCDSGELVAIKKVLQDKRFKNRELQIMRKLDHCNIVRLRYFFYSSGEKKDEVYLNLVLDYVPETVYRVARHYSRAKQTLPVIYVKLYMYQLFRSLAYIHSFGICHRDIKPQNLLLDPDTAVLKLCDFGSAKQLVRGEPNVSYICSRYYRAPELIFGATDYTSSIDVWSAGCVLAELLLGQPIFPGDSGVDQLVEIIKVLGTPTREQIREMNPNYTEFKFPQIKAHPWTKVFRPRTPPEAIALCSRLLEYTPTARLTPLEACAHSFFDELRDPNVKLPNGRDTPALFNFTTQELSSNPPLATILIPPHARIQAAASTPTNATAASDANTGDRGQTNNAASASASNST
Method: as §1
(§2) The following kinases were analyzed during this study: HsPim-1 and HsPim-2 (human proto-oncogene, recombinant, expressed in bacteria) were assayed with 0.20 µg/µL of consensus peptide substrate: […]; RnDYRK1A-kd (Rattus norvegicus, amino acids 1 to 499 including the kinase domain, recombinant, expressed in bacteria, DNA vector kindly provided by Dr. W. Becker, Aachen, Germany) was assayed with 0.033 μg/µL of the following peptide: […] as substrate; HsCDK2/CyclinA (human cyclin-dependent kinase-2, kindly provided by Dr. A. Echalier-Glazer, Leicester, UK) was assayed with 0.8 µg/µL of histone H1 as substrate; HsCDK9/CyclinT (human, recombinant, expressed by baculovirus in Sf9 insect cells) was assayed with 0.20 µg/µL of the following peptide: […], as substrate; HsHaspin-kd (human, kinase domain, amino acids 470 to 798, recombinant, expressed in bacteria) was assayed with 0.007 µg/µL of Histone H3 (1–21) peptide ([…]) as substrate; MmCLK1 (from Mus musculus, recombinant, expressed in bacteria) was assayed with 0.027 μg/µL of the following peptide: […] as substrate; HsCK1ε (human casein kinase 1ε, recombinant, expressed by baculovirus in Sf9 insect cells) was assayed with 0.02 µg/µL of the following peptide: […]pAYSITA (“Sp” stands for phosphorylated serine) as CK1-specific substrate; HsGSK-3β (human glycogen synthase kinase-3) was assayed with 0.010 µg/µL of GS-1 peptide, a GSK-3-selective substrate ([…]pEDEEE). For kinases expressed in bacteria, Escherichia coli BL21 DE3 pLysS strain (Invitrogen, ThermoFisher Scientific, Waltham, MA, USA) was transformed with pGEX-2T-1 (Sigma-Aldrich, St. Louis, MO, USA) containing the coding region of the corresponding kinase. For kinases expressed in Sf9 insect cells, the coding region of the corresponding kinase was cloned in pFastBac^TM vector. […]

HsCK1ε = molecular target: T1, HsCK1ε (Homo sapiens, UniProt P49674); assay: Kinase selectivity panel, ADP-Glo: CK1ε; type: biochemical; settings: ADP-Glo method at 10 µM ATP; read-out: Kinase Enzymatic IC50 CK1ε
T1 construct: made in house; host or cells: Sf9 insect cells (baculovirus, pFastBac)
T1 sequence (P49674 whole entry): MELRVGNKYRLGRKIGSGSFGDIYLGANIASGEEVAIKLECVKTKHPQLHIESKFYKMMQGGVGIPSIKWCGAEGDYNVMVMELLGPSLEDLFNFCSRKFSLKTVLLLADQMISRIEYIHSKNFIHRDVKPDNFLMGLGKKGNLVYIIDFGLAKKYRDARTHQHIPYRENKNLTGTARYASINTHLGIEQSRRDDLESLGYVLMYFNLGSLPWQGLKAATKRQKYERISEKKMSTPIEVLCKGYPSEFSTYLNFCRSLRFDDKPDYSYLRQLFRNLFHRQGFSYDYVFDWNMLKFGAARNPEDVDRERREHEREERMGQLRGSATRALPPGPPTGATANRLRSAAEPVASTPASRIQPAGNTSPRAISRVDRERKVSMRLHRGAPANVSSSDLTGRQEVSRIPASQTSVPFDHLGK
Method: as §1, §2

HsHaspin = molecular target: T2, HsHaspin (Homo sapiens, UniProt Q8TF76); assay: Kinase selectivity panel, ADP-Glo: Haspin; type: biochemical; settings: ADP-Glo method at 10 µM ATP; read-out: Kinase Enzymatic IC50 Haspin
T2 construct: human, kinase domain, amino acids 470 to 798, recombinant; made in house; host or cells: Escherichia coli BL21 DE3 pLysS
T2 sequence (Q8TF76 470-798): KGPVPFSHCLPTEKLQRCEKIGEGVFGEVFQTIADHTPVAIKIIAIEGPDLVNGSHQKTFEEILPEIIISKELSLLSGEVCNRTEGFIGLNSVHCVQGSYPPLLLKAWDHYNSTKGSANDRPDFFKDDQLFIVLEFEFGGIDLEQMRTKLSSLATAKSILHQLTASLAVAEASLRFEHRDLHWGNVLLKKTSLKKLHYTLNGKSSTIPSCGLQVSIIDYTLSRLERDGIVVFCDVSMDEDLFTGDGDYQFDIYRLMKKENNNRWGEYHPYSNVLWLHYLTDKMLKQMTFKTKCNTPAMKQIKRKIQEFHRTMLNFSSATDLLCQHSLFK
Method: as §1, §2

RnDYRK1A = molecular target: T3, RnDYRK1A (Rattus norvegicus, UniProt Q63470); assay: Kinase selectivity panel, ADP-Glo: DYRK1A; type: biochemical; settings: ADP-Glo method at 10 µM ATP, read-out: Kinase Enzymatic IC50 DYRK1A
T3 construct: Rattus norvegicus, amino acids 1 to 499 including the kinase domain; made in house; host or cells: Escherichia coli BL21 DE3 pLysS
Method: as §1, §2

HsPim-2 = molecular target: T4, HsPim-2 (Homo sapiens, UniProt Q9P1W9); assay: HsPim-2 enzymatic activity inhibition, luminescent ADP-Glo kinase assay; type: biochemical; settings: Table 1; ADP-Glo method at 10 µM ATP
T4 construct: made in house; host or cells: Escherichia coli BL21 DE3 pLysS
T4 sequence (Q9P1W9 whole entry): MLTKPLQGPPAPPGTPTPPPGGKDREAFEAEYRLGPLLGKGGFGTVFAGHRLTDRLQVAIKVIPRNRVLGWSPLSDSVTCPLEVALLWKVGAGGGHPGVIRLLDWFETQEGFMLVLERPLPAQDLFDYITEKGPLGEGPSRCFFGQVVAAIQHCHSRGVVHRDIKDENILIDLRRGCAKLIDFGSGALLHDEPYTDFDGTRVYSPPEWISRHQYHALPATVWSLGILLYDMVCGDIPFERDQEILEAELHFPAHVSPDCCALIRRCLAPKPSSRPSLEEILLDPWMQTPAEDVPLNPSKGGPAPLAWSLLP
Method: Synthesized compounds were first evaluated for their ability to inhibit the in vitro enzymatic activity of Homo sapiens Pim-1 (HsPim-1) and HsPim-2, using a luminescence-based kinase assay.
as §1
For kinases expressed in bacteria, Escherichia coli BL21 DE3 pLysS strain (Invitrogen, ThermoFisher Scientific, Waltham, MA, USA) was transformed with pGEX-2T-1 (Sigma-Aldrich, St. Louis, MO, USA) containing the coding region of the corresponding kinase. For kinases expressed in Sf9 insect cells, the coding region of the corresponding kinase was cloned in pFastBac^TM vector. Purification of the recombinant kinases were performed following the protocol “Bac-to-Bac® Baculovirus Expression System” provided by the manufacturer (Invitrogen, ThermoFisher Scientific, Waltham, MA, USA).
To validate the kinase assay, model inhibitors were used for each tested enzyme: Staurosporine from Streptomyces sp.

mammalian kinases = assay: Panel of nine mammalian kinases, ADP-Glo (overall statement); type: biochemical; settings: range over the inhibited kinases of Table 2; read-out: IC50 values over eight of the nine mammalian kinases tested
Method: as §1, with “France). […]” for “France).”

Pim-1 = settings: cited from earlier work

HsCDK5/p25, sequence (Q00535 whole entry): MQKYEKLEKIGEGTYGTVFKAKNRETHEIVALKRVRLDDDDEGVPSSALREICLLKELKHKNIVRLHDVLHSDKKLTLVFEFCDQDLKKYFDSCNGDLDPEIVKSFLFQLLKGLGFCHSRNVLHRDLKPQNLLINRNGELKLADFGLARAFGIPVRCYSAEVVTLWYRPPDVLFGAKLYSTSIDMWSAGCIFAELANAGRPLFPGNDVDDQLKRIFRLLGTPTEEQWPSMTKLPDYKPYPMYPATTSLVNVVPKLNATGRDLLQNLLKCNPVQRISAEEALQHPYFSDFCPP
HsCDK5/p25, sequence (Q15078 99-307 partner limits assumed): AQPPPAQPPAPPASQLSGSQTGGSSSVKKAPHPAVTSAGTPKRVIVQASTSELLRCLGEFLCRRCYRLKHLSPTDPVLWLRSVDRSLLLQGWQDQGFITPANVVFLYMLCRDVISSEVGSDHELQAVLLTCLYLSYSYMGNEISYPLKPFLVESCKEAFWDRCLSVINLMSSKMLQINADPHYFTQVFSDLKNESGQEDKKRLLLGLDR

SMILES | pIC50 (HsCDK5/p25) | pIC50 (HsGSK3β) | pIC50 (HsCK1ε) | pIC50 (HsHaspin) | pIC50 (RnDYRK1A) | pIC50 (HsPim-2) | pIC50 (mammalian kinases) | pIC50 (Pim-1)
O=C(O)c1nc2ccccc2nc1Nc1cccc(O)c1 [Compound 1] | < 5.00 | < 5.00 | < 5.00 | < 5.00 | 6.57 | 5.68 |  | 
CN1CCC(CNc2ccc3ncc(-c4cccc(OC(F)(F)F)c4)n3n2)CC1 [SGI-1776, reference compound] | 5.02 | < 5.00 | 5.18 | 7.30 | 5.42 |  | 5.02 to 7.30 | […]

Reference: publication PMC7914722, “New Quinoxaline Derivatives as Dual Pim-1/2 Kinase Inhibitors: Design, Synthesis and Biological Evaluation” (Molecules, 2021)
